Source: paper PMC10961089, “Epidermal growth factor receptor inhibition potentiates chemotherapeutics‐mediated sensitization of metastatic breast cancer stem cells” (Cancer Reports, 2024)

Legend:
[1] = test system: CD44, p‐EGFR, p‐JNK, p‐p38 in tumor tissue; experiment: Immunohistochemical analysis of tumor tissue (colocalization with GFP, Pearson's correlation coefficient); format: in vivo, C57BL/6 mice
Description: (§1) Animal studies have been carried out with the prior approval of the Institutional Animal Ethics Committee (IICT/IAEC/025/2023). C57BL/6 female mice of age 6–8 weeks (N = 35) were initially immunosuppressed with cyclophosphamide (50 mg/kg of body weight, i.p) on alternate days for 2 weeks. For generating a preclinical orthotopic xenograft tumor model, 2 × 10^6 GFP expressing sorted stable CD24^+‐breast cancer cells and CD24^−/CD44^+‐breast CSCs were orthotopically xeno‐transplanted subcutaneously at the fourth mammary fat pad of immune‐suppressed mice (n = 5/group). Subsequently, intratumoral administration of Doxorubicin at a low dose (2.5 mg/kg of body weight), high dose (10 mg/kg of body weight), and/or combinatorial treatment of the potent EGFR inhibitor, compound 1e (50 mg/kg of body weight) or the commercial EGFR inhibitor, PD153035 (50 mg/kg of body weight) with a low dose of doxorubicin was performed to the palpable tumors of breast CSCs at day‐3 post‐transplantation.
Immunohistochemical analysis was performed by immunostaining the tissue serial sections with primary antibodies against GFP, CD44, p‐EGFR, p‐JNK, and p‐p38 (CST, USA) followed by alexafluor‐488/555 conjugated secondary antibodies (R&D systems, USA) and mounting medium containing DAPI.[28], [29] Images were captured using a confocal microscope (Olympus FV10i, Tokyo, Japan). Pearson's correlation coefficient was utilized to determine the co‐localization of GFP/CD44, GFP/p‐EGFR, GFP/p‐JNK, and GFP/p‐p38 (Table. ST3).

[2] = test system: MDA‐MB‐231; parameters: method as in PMID 28398698; details: unit not printed in the sentence (Table 1 in μM); read-out: IC50 against MDA‐MB‐231; cited from earlier work
[3] = test system: CD24^−/CD44^+‐breast CSCs xenotransplanted tumors; experiment: Preclinical orthotopic xenograft murine tumor model (tumor size, weight, H&E histology); format: in vivo, C57BL/6 mice
Description: as §1
Euthanization of mice was performed on day 14 post‐transplantation and tumor tissues were collected for histological and immunohistochemical analysis. Histological differences in tumor tissues were evaluated using hematoxylin and eosin staining (H&E).[28], [30]

[4] = test system: human CD44, ALDH1A1, Fibronectin, N‐Cadherin, Vimentin in tumor tissue; experiment: qRT-PCR of human CSC/EMT genes in tumor tissues; format: in vivo, C57BL/6 mice; details: with doxorubicin low dose vs low dose doxorubicin alone
Description: Additionally, total RNA was isolated from tumor tissues and utilized for cDNA synthesis (Thermo Scientific, Massachusetts, USA). To determine the transcriptional regulation of expression of EMT genes in tumor tissues subjected to various treatment regimes, quantitative real‐time PCR (qRT‐PCR) analysis was performed as described previously[28] using human gene‐specific forward and reverse primers of EMT genes. Amplification of Eukaryotic 18S rRNA served as an internal control and was utilized to calculate the fold change in expression.[29]
as §1

[5] = test system: MDA‐MB‐231; experiment: Cell migration (chemotaxis), Boyden-Chamber assay; format: cell-based, human; details: Doxorubicin 0.01 μM + compound 5 μM (PD153035 10 μM) vs 10% FBS and Doxorubicin alone
Description: (§2) TNBC cell lines—MDA‐MB‐231, MDA‐MB‐468, and the sorted CD24^+‐breast cancer cells, and CD24^−/CD44^+‐breast CSC populations from MDA‐MB‐231 [6] were seeded at a density of 1 × 10^6 cells/well to evaluate their migratory potential by Boyden‐Chamber assay. […] At the end of the treatment period, the cells were plated at a density of 5 × 10^3 cells/well in the upper chamber of the Boyden chamber assembly and 10% FBS in the lower chamber was used as a chemoattractant. Separately, the cells in the upper chamber were treated with Doxorubicin (0.01–0.1 μM) alone or with the potential EGFR inhibitors (compounds—1c, 1e, 1g, 1h, 1j, and 1k (5 μM) based on their low IC50 values) or a commercial EGFR inhibitor, PD153035 (10 μM) and incubated for 4 h followed by fixation and staining as described previously.[28], [29]

[6] = test system: MDA‐MB‐468; experiment: Cell migration (chemotaxis), Boyden-Chamber assay; format: cell-based, human; details: Doxorubicin 0.01 μM + compound 5 μM (PD153035 10 μM) vs 10% FBS and Doxorubicin alone
Description: as §2

[7] = test system: Bax and Cytochrome‐C in MDA‐MB‐231 cells; experiment: Gene expression of apoptotic genes, semi-quantitative RT-PCR; format: cell-based, human; details: MDA-MB-231, doxorubicin + compound 5 μM, 24 h
Description: Briefly, the cells were incubated at 37°C with serum starvation followed by culturing as described above. […] Briefly, the template RNA (1 μg) was utilized for cDNA synthesis using a First‐strand cDNA synthesis kit (Thermo Scientific, USA) according to the manufacturer's protocol. Thermal cycler (Mastercycler® nexus, Eppendorf) was used for the amplification of the expression of apoptotic genes—Bax, Bcl2, Cytochrome‐C, and target gene EGFR with the help of Dream Taq DNA Polymerase PCR Master Mix (Thermo Scientific, USA) along with human gene‐specific forward and reverse primer sequences of the apoptotic genes and EGFR (Table ST1). The expression of the target genes was normalized to the Eukaryotic 18S rRNA.

[8] = test system: MDA‐MB‐468; parameters: method as in PMID 28398698; details: unit not printed in the sentence (Table 1 in μM); read-out: IC50 against MDA‐MB‐468; cited from earlier work

Compound: COc1cc2ncnc(Nc3cccc(Br)c3)c2cc1OC [PD153035, reference compound]
- colocalization of GFP/p‐EGFR ([1]; with doxorubicin low dose, CSC xenograft tumor tissue): decreased significantly
- activation of apoptotic signaling mediators (GFP/p‐JNK, GFP/p‐p38 colocalization) ([1]; with low dose doxorubicin, comparable with high dose doxorubicin alone): increased activation
- colocalization of GFP and CD44 (Pearson's correlation coefficient) ([1]; with low dose of doxorubicin, CSC xenograft tumor tissue): comparable to the high dose of doxorubicin treated group
- IC50 [2]: 3.2 µM
- tumorigenicity (H&E histology) ([3]; 50 mg/kg + low dose doxorubicin 2.5 mg/kg, CSC xenograft): significant decrease
- histopathological finding in tumor tissue ([3]; 50 mg/kg + low dose doxorubicin 2.5 mg/kg, CSC xenograft, day 14): neoplastic mass in the dermal region which was completely necrosed and replaced with fibrous tissue
- tumor size ([3]; intratumoral, 50 mg/kg + doxorubicin low dose 2.5 mg/kg vs low dose doxorubicin alone, CD24^−/CD44^+ CSC xenograft): significantly decreased
- expression level of human CD44 in tumor tissue [4]: significantly decreased
- migratory potential [5]: significant decrease
- migratory potential [6]: significant decrease
- expression of pro‐apoptotic genes Bax and Cytochrome‐C [7]: marked increase
- IC50 [8]: 15.4 µM
